The nature of data set [1]: Animal biodistribution studies of 99mTc complexes in rats. The arrangement: Heart / Blood / Muscle / Lung / Liver / Kidney / Bladder & Urine / Brain: unit not given here. The format is in vivo, Male Sprague Dawley rats. The conditions noted are these: i.v. tail vein. How it is done: Complex Preparation: 20-25 μl of hydrazine was added to 2 cm^3 of absolute ethanol, then ^99mTcO4^−(0.2-3.0 GBq) and 10 mg of ligand were added to the solution. This mixture was heated to 120° C. for 30-60 minutes, cooled to room temperature and analyzed. For biodistribution studies the total volume of he preparation was made up to 5 cm^3 by the addition of sterile saline solution.
Animal Biodistribution Studies: Six Male Sprague Dawley rats were infected while under light ether anaesthesia with 0.1 cm^3 of preparation (i.v., tail vein) and half were sacrificed by cervical dislocation while under ether anaesthesia at the appropriate time interval post-infection and dissected. Organs were weighed and their activities measured in an ionisation chamber. For the purposes of calculations blood was assumed to constitute 5.8% of the total body weight, muscle was assumed to be 43% and the lungs were assumed to weigh 1 g.

A short description of data set [2]: Stability to air and moisture (observation). The format is physicochemical. The settings on record: 99Tc complex, isolated solid.
Data set [3] in a line: Solubility in solvents (observation). The format is physicochemical. The conditions noted are these: 99Tc complex, organic solvents.

As for `CP(C)COCP(C)C` (99mTc complex, metal not drawn) [PL28], in data set [1] (Time P. I. 2), the “Bladder & Urine” value stood at 0.11, the Blood worked out at 4.18, the Brain is on record as 0.04 and the Heart turned out to be 1.12. In data set [1] (Time P. I. 2), this compound gave a Kidney of 9.41, a Liver of 17.8, a Lung of 1.18 and a Muscle of 30.2. Also, in data set [1] (Time P. I. 60), the “Bladder & Urine” value came out at 10.9, the Blood is 0.46, the Brain is 0.02 and the Heart was 0.65. Further, in data set [1] (Time P. I. 60), the Kidney is 5.90, the Liver was determined as 5.95, the Lung was found to be 0.62 and the Muscle turned out to be 27.4. In addition, in data set [1] (Time P. I. 60), the “S. I.” value came out at 39.6.
As for `CCOCC(COCC)(CP(C)C)CP(C)C` (99mTc complex, metal not drawn) [PL42], in data set [1] (Time P. I. 2), the “Bladder & Urine” value amounted to 0.06, the Blood was determined as 28.6, the H/Bl is 0.59 and the H/Li is listed as 0.73. In data set [1] (Time P. I. 2), the Heart is recorded as 1.22, the Kidney is listed as 5.35, the Liver amounted to 22.8 and the Lung is on record as 2.56. In addition, in data set [1] (Time P. I. 2), the Muscle is given as 18.1 and the “S. I.” value is given as 7.66. Also, in data set [1] (Time P. I. 60), the “Bladder & Urine” value is 2.61, the Blood came out at 8.99, the H/Bl came to 2.13 and the H/Li was 1.12. Moreover, in data set [1] (Time P. I. 60), the Heart stood at 1.19, the Kidney came out at 3.52, the Liver worked out at 14.7 and the Lung came to 1.57. In data set [1] (Time P. I. 60), the Muscle turned out to be 21.3 and the “S. I.” value is 31.8.
Regarding `COCCC(CCOC)(CP(C)C)CP(C)C` (99mTc complex, metal not drawn) [PL50], in data set [1] (Time P. I. 2), the “Bladder & Urine” value came to 0.09, the Blood worked out at 4.38, the H/Bl turned out to be 2.68 and the H/Li is 0.31. In data set [1] (Time P. I. 2), this compound gave a Heart of 0.83, a Kidney of 12.0, a Liver of 34.8 and a Lung of 1.02. In addition, in data set [1] (Time P. I. 2), the Muscle is reported as 18.7 and the “S. I.” value is listed as 12.8. In data set [1] (Time P. I. 60), the “Bladder & Urine” value stood at 6.76, the Blood is 0.42, the H/Bl was found to be 22.2 and the H/Li is 1.27. In data set [1] (Time P. I. 60), this compound returned a Heart of 0.65, a Kidney of 6.81, a Liver of 4.35 and a Lung of 0.43. Besides, in data set [1] (Time P. I. 60), the Muscle was determined as 14.9 and the “S. I.” value came to 57.9.
For `CCCC[N+](CCCC)(CCCC)CCCC.Cc1ccc([N]=[Tc-]([Cl])([Cl])([Cl])[Cl])cc1` [Complex 1, Tetrabutylammonium(1+)tetrachloro(p-tolylimido) technetate (V) (1−)], the “stability to air / moisture” value in data set [2] is recorded as “quite sensitive to adventitious moisture”.
On to `CCCC[N+](CCCC)(CCCC)CCCC.Cc1ccc([N]=[Tc-]([Br])([Br])([Br])[Br])cc1` [Complex 2, Tetrabutylammonium(1+)tetrabromo(p-tolylimido) technetate (V) (1−)], for which, in data set [2], the “stability to air / moisture” value is recorded as “quite sensitive to adventitious moisture”.
Turning to `Clc1ccc(N=[N][Tc]([Cl])([N]=Nc2ccc(Cl)cc2)([PH](c2ccccc2)(c2ccccc2)c2ccccc2)[PH](c2ccccc2)(c2ccccc2)c2ccccc2)cc1` [Complex 9, [TcCl(NNC6H4Cl)2(PPh3)2]], in data set [2], the “stability to air / moisture” value is on record as “air-stable”. Further, the solubility entry in data set [3] is reported as “reasonably soluble”.
`O=C1[O][Tc]([Cl])([Cl])([P+](c2ccccc2)(c2ccccc2)c2ccccc2)([P+](c2ccccc2)(c2ccccc2)c2ccccc2)=[N]c2ccccc21` [Complex 18, [TcCl2(NC6H4CO2)(PPh3)2]]: in data set [3], the solubility entry was “soluble in DMF and CH2Cl2”.
As for `[N]#[Tc]([Cl])([Cl])([P](c1ccccc1)(c1ccccc1)c1ccccc1)[P](c1ccccc1)(c1ccccc1)c1ccccc1` [Example 7, TcNCl2(Ph3)2], the “stability to air / moisture” value in data set [2] is listed as “air-stable”. In addition, in data set [3], the solubility result is “quite soluble in CH2Cl2 and insoluble in ether, petrol and alcohols”.
For the compound `CN([N]=[Tc]([Cl])([Cl])([Cl])([P](c1ccccc1)(c1ccccc1)c1ccccc1)[P](c1ccccc1)(c1ccccc1)c1ccccc1)c1ccccc1` [Example 10, TcNNPhMe(PPh3)2Cl3], the “stability to air / moisture” value in data set [2] is on record as “air-stable”. Moreover, the solubility result in data set [3] is “reasonably soluble”.
Turning to `COCCOCC(COCCOC)(CP(C)C)CP(C)C` [PL43], in data set [1] (Time P. I. 2), the “Bladder & Urine” value worked out at 0.16, the Blood was determined as 21.5, the H/Bl worked out at 0.41 and the H/Li was 0.38. In data set [1] (Time P. I. 2), the Heart came to 0.55, the Kidney came to 9.19, the Liver worked out at 21.4 and the Lung turned out to be 1.47. Besides, in data set [1] (Time P. I. 2), the Muscle worked out at 21.7 and the “S. I.” value stood at 8.6. Further, in data set [1] (Time P. I. 60), the “Bladder & Urine” value is given as 25.4, the Blood turned out to be 1.14, the H/Bl worked out at 3.83 and the H/Li is reported as 0.40. In data set [1] (Time P. I. 60), this compound yielded a Heart of 0.26, a Kidney of 2.32, a Liver of 9.08 and a Lung of 0.22. Further, in data set [1] (Time P. I. 60), the Muscle is reported as 10.9 and the “S. I.” value came to 45.6.
Take `[Cl][Tc]([N]=Nc1ccccc1)([N]=Nc1ccccc1)([PH](c1ccccc1)(c1ccccc1)c1ccccc1)[PH](c1ccccc1)(c1ccccc1)c1ccccc1` [[TcCl(NNPh)2(PPh3)2], [Tc(NNPh)2Cl(PPh3)2]]: the solubility result in data set [3] is “somewhat insoluble”; in data set [3] (listed as Tc(NNPh)2Cl(PPh3)2), “only partially soluble in halogenated solvents and insoluble in alcohols”.
With [TC(NNC6H4Cl)2(N2S2)]x [Complex 17], the solubility entry in data set [3] is recorded as “too insoluble for satisfactory analysis by NMR”.
For the compound “[Tc(NC6H4Z)Cl(dppe)2] (BPh4) Z═CH3 [Complex 6]”, the “stability to air / moisture” value in data set [2] is on record as “air-stable”. Also, the solubility entry in data set [3] was “quite soluble in CH2Cl2 and insoluble in ether, petrol and alcohols”.
In the case of [TcN(dppe)2Cl][PF6] [Example 8], the “stability to air / moisture” value in data set [2] was “air-stable”. Besides, the solubility result in data set [3] was “quite soluble in CH2Cl2 and insoluble in ether, petrol and alcohols”.
As for [Tc^III(NNC6H4NO2) (Cl(dmpe)2]^+, in data set [1] (Time P. I. 2), the “Bladder & Urine” value amounted to 0.08, the Blood turned out to be 5.68, the Brain was 0.12 and the H/Bl is on record as 3.00. In data set [1] (Time P. I. 2), this compound had a H/Li of 0.72, a Heart of 1.15, a Kidney of 9.47 and a Liver of 22.4. In addition, in data set [1] (Time P. I. 2), the Lung was 2.27, the Muscle is recorded as 26.2 and the “S. I.” value was 13.0. Besides, in data set [1] (Time P. I. 60), the “Bladder & Urine” value is recorded as 7.28, the Blood is 0.92, the Brain was found to be 0.06 and the H/Bl was found to be 11.0. Moreover, in data set [1] (Time P. I. 60), the H/Li is recorded as 0.76, the Heart is given as 0.67, the Kidney came to 9.47 and the Liver is recorded as 12.3. In data set [1] (Time P. I. 60), the Lung is 1.04, the Muscle came to 16.8 and the “S. I.” value came out at 33.8.

The values are drawn from US6515112B2, “Cores for technetium radiopharmaceuticals” (Amersham PLC, priority 1989, dated 2003).
